This is an account of results in patent publication US20260217735A1, “HETEROCYCLES AND USES THEREOF” (Kumquat Biosciences Inc., priority 2023, published 2026).

For one experiment, the target named is T1, KRAS G12S (Homo sapiens, UniProt P01116, G12S).
T1 construct: made in house; host or cells: E. coli, e.g. BL21 (DE3)
Nature of the experiment: HTRF assay, KRAS G12S interaction with SOS1. In kind it is biochemical. The conditions noted are these: bins <500 nM / 500 nM to 1000 nM, read-out: Inhibition of KRAS G12S (IC50). On the technique in general: Time-resolved FRET reads energy transfer from a long-lived donor to a nearby acceptor.

In the next experiment the test system is MiaPaca2 cells. Nature of the experiment: Ras cellular assay, growth of cells with K-Ras G12C mutation. In kind it is cell-based. The conditions noted are these: Homo sapiens, MIA PaCa-2; cell proliferation assay; bins ≤500 nM / >500 nM; read-out: Inhibition of MiaPaca2 Cells (IC50). The procedure, abridged:
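Anchorage-independent growth: G12C-mutant MIA PaCa-2 plated in soft agar, time-zero plate read the next day when compound was dosed (final DMSO 0.3%). After growth to day 10, MTS-type absorbance at 490/660 nm relative to time zero gave IC50 via four-parameter fitting.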

The target of the next experiment is T2, KRAS G12D (Homo sapiens, UniProt P01116, G12D).
T2 construct: made in house; host or cells: E. coli, e.g. BL21 (DE3)
Nature of the experiment: HTRF assay, KRAS G12D interaction with SOS1. The class given is biochemical. As to conditions: bins <500 nM / 500 nM to 1000 nM, read-out: Inhibition of KRAS G12D (IC50).

A further experiment deals with T3, KRAS G12V (Homo sapiens, UniProt P01116, G12V).
T3 construct: made in house; host or cells: E. coli, e.g. BL21 (DE3)
Description: HTRF assay, KRAS G12V interaction with SOS1. In kind it is biochemical. As to conditions: bins <500 nM / 500 nM to 1000 nM, read-out: Inhibition of KRAS G12V (IC50).

The target in another experiment is T4, KRAS WT (Homo sapiens, UniProt P01116).
T4 construct: made in house; host or cells: E. coli, e.g. BL21 (DE3)
Description: HTRF assay, wildtype KRAS interaction with SOS1. The conditions noted are these: bins <500 nM / 500 nM to 1000 nM, read-out: Inhibition of KRAS WT (IC50). In kind it is biochemical.

T4 sequence (P01116 1-188 isoform P01116-2): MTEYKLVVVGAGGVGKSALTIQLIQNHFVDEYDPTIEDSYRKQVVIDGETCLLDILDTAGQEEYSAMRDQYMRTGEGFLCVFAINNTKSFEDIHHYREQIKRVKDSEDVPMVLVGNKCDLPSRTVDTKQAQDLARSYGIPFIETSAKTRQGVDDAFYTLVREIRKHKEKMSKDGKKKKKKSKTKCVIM
T2 sequence (P01116 1-188 isoform P01116-2 G12D): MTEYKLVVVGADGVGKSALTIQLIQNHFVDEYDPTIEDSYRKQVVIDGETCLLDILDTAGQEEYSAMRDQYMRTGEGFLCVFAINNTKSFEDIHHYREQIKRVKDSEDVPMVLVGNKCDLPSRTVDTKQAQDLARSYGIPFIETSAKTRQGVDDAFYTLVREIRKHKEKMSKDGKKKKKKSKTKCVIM
T1 sequence (P01116 1-188 isoform P01116-2 G12S): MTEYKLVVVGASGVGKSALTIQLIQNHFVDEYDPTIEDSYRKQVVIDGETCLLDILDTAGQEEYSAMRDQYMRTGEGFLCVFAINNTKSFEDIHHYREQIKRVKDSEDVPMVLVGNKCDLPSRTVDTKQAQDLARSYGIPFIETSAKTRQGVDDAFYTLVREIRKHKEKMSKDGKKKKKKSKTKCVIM
T3 sequence (P01116 1-188 isoform P01116-2 G12V): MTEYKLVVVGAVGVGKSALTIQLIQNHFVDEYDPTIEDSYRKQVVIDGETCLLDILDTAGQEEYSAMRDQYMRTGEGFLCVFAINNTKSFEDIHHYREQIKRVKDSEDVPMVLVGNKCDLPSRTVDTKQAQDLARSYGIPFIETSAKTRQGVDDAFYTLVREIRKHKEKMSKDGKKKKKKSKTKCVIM

As to `Cc1cn(C(=O)N2CC3(CCCCN(c4nc(OC[C@@]56CCCN5C[C@H](F)C6)nc5c(F)c(-c6ccc(F)c7sc(N)c(C#N)c67)c(Cl)cc45)C3)C2)cn1` [Compound 164, 2-amino-4-(6-chloro-8-fluoro-2-(((2R,7aS)-2-fluorotetrahydro-1H-pyrrolizin-7a(5H)-yl)methoxy)-4-(2-(4-methyl-1H-imidazole-1-carbonyl)-2,6-diazaspiro[3.6]decan-6-yl)quinazolin-7-yl)-7-fluorobenzo[b]thiophene-3-carbonitrile], the IC50 (usually the concentration that gives 50% inhibition) on KRAS G12S was below 500 nM; in the experiment on MiaPaca2 cells, at most 500 nM; at KRAS G12D it was below 500 nM; on KRAS G12V, below 500 nM; at KRAS WT it was below 500 nM.

Take `Cc1nc(C#N)cn1C(=O)N1C[C@]2(CCCCN(c3nc(OC[C@@]45CCCN4C[C@H](F)C5)nc4c(F)c(-c5ccc(F)c6sc(N)c(C#N)c56)c(Cl)cc34)C2)[C@H]1C` [Compound 165, 1-((1R,4R)-6-(7-(2-amino-3-cyano-7-fluorobenzo[b]thiophen-4-yl)-6-chloro-8-fluoro-2-(((2R,7aS)-2-fluorotetrahydro-1H-pyrrolizin-7a(5H)-yl)methoxy)quinazolin-4-yl)-1-methyl-2,6-diazaspiro[3.6]decane-2-carbonyl)-2-methyl-1H-imidazole-4-carbonitrile]: the IC50 on KRAS G12S is below 500 nM; in the experiment with MiaPaca2 cells, at most 500 nM; on KRAS G12D, below 500 nM; on KRAS G12V it was below 500 nM; at KRAS WT, below 500 nM.

Turning to `CC[C@@H]1[C@H](N(CC)c2nc(OC[C@@]34CCCN3C[C@H](F)C4)nc3c(F)c(-c4ccc(F)c5sc(N)c(C#N)c45)c(Cl)cc23)CCN1C(=O)n1cnc(F)n1` [Compound 168, 2-amino-4-(6-chloro-4-(ethyl((2R,3R)-2-ethyl-1-(3-fluoro-1H-1,2,4-triazole-1-carbonyl)pyrrolidin-3-yl)amino)-8-fluoro-2-(((2R,7aS)-2-fluorotetrahydro-1H-pyrrolizin-7a(5H)-yl)methoxy)quinazolin-7-yl)-7-fluorobenzo[b]thiophene-3-carbonitrile], the IC50 is below 500 nM at KRAS G12S; at most 500 nM in the experiment with MiaPaca2 cells; below 500 nM at KRAS G12D; below 500 nM on KRAS G12V; below 500 nM at KRAS WT.

As to `CC(C)[C@@H]1[C@H](N(C)c2nc(OC[C@@]34CCCN3C[C@H](F)C4)nc3c(F)c(-c4ccc(F)c5sc(N)c(C#N)c45)c(Cl)cc23)CCN1C(=O)n1ccnc1` [Compound 169, 4-(4-(((2R,3R)-1-(1H-imidazole-1-carbonyl)-2-isopropylpyrrolidin-3-yl)(methyl)amino)-6-chloro-8-fluoro-2-(((2R,7aS)-2-fluorotetrahydro-1H-pyrrolizin-7a(5H)-yl)methoxy)quinazolin-7-yl)-2-amino-7-fluorobenzo[b]thiophene-3-carbonitrile], the IC50 at KRAS G12S is below 500 nM; with MiaPaca2 cells, at most 500 nM; at KRAS G12D, below 500 nM; at KRAS G12V it was below 500 nM; on KRAS WT, below 500 nM.

As for `CCN(c1nc(OC[C@@]23CCCN2C[C@H](F)C3)nc2c(F)c(-c3ccc(F)c4sc(N)c(C#N)c34)c(Cl)cc12)[C@@H]1CCN(C(=O)n2cnc(OC)c2)[C@@H]1C` [Compound 170, 2-amino-4-(6-chloro-4-(ethyl((2R,3R)-1-(4-methoxy-1H-imidazole-1-carbonyl)-2-methylpyrrolidin-3-yl)amino)-8-fluoro-2-(((2R,7aS)-2-fluorotetrahydro-1H-pyrrolizin-7a(5H)-yl)methoxy)quinazolin-7-yl)-7-fluorobenzo[b]thiophene-3-carbonitrile], the IC50 was below 500 nM on KRAS G12S; at most 500 nM in the experiment with MiaPaca2 cells; below 500 nM at KRAS G12D; below 500 nM at KRAS G12V; below 500 nM on KRAS WT.

As for `CCN(c1nc(OC[C@@]23CCCN2C[C@H](F)C3)nc2c(F)c(-c3ccc(F)c4sc(N)c(C#N)c34)c(C3CC3)cc12)[C@@H]1CCN(C(=O)n2ccnc2C)[C@@H]1C` [Compound 171, 2-amino-4-(6-cyclopropyl-4-(ethyl((2R,3R)-2-methyl-1-(2-methyl-1H-imidazole-1-carbonyl)pyrrolidin-3-yl)amino)-8-fluoro-2-(((2R,7aS)-2-fluorotetrahydro-1H-pyrrolizin-7a(5H)-yl)methoxy)quinazolin-7-yl)-7-fluorobenzo[b]thiophene-3-carbonitrile], the IC50 at KRAS G12S is below 500 nM; in the experiment on MiaPaca2 cells, at most 500 nM; on KRAS G12D, below 500 nM; at KRAS G12V, below 500 nM; at KRAS WT it was below 500 nM.

In the case of `C[C@@H]1[C@H](N(C)c2nc(OC[C@@]34CCCN3C[C@H](F)C4)nc3c(F)c(-c4ccc(F)c5sc(N)c(C#N)c45)c(Cl)cc23)CCN1C(=O)n1cccn1` [Compound 172, 2-amino-4-(6-chloro-8-fluoro-2-(((2R,7aS)-2-fluorotetrahydro-1H-pyrrolizin-7a(5H)-yl)methoxy)-4-(methyl((2R,3R)-2-methyl-1-(1H-pyrazole-1-carbonyl)pyrrolidin-3-yl)amino)quinazolin-7-yl)-7-fluorobenzo[b]thiophene-3-carbonitrile], the IC50 on KRAS G12S is below 500 nM; with MiaPaca2 cells, at most 500 nM; on KRAS G12D, below 500 nM; at KRAS G12V, below 500 nM; at KRAS WT, below 500 nM.

On to `CC[C@@H]1[C@H](N(CC)c2nc(OC[C@@]34CCCN3C[C@H](F)C4)nc3c(F)c(-c4ccc(F)c5sc(N)c(C#N)c45)c(Cl)cc23)CCN1C(=O)n1ccnc1` [Compound 173, 2-amino-4-(6-chloro-4-(ethyl((2R,3R)-2-ethyl-1-(1H-imidazole-1-carbonyl)pyrrolidin-3-yl)amino)-8-fluoro-2-(((2R,7aS)-2-fluorotetrahydro-1H-pyrrolizin-7a(5H)-yl)methoxy)quinazolin-7-yl)-7-fluorobenzo[b]thiophene-3-carbonitrile], for which the IC50 is below 500 nM at KRAS G12S; at most 500 nM with MiaPaca2 cells; below 500 nM on KRAS G12D; below 500 nM at KRAS G12V; below 500 nM on KRAS WT.

Consider `Cc1ncn(C(=O)N2C[C@]3(CCCCN(c4nc(OC[C@@]56CCCN5C[C@H](F)C6)nc5c(F)c(-c6ccc(F)c7sc(N)c(C#N)c67)c(Cl)cc45)C3)[C@H]2C2(C)CC2)c1C` [Compound 174, 2-amino-4-(6-chloro-4-((1R,4R)-2-(4,5-dimethyl-1H-imidazole-1-carbonyl)-1-(1-methylcyclopropyl)-2,6-diazaspiro[3.6]decan-6-yl)-8-fluoro-2-(((2R,7aS)-2-fluorotetrahydro-1H-pyrrolizin-7a(5H)-yl)methoxy)quinazolin-7-yl)-7-fluorobenzo[b]thiophene-3-carbonitrile], for which the IC50 is below 500 nM at KRAS G12S; at most 500 nM in the experiment with MiaPaca2 cells; below 500 nM on KRAS G12D; below 500 nM at KRAS G12V; below 500 nM at KRAS WT.

Take `CCN(c1nc(OC[C@@]23CCCN2C[C@H](F)C3)nc2c(F)c(-c3ccc(F)c4sc(N)c(C#N)c34)c(C3CC3)cc12)[C@@H]1CCN(C(=O)n2cnc(C)c2C)[C@@H]1C` [Compound 175, 2-amino-4-(6-cyclopropyl-4-(((2R,3R)-1-(4,5-dimethyl-1H-imidazole-1-carbonyl)-2-methylpyrrolidin-3-yl)(ethyl)amino)-8-fluoro-2-(((2R,7aS)-2-fluorotetrahydro-1H-pyrrolizin-7a(5H)-yl)methoxy)quinazolin-7-yl)-7-fluorobenzo[b]thiophene-3-carbonitrile]: the IC50 is below 500 nM on KRAS G12S; at most 500 nM with MiaPaca2 cells; below 500 nM at KRAS G12D; below 500 nM at KRAS G12V; below 500 nM at KRAS WT.

Regarding `C[C@@H]1[C@H](N(C)c2nc(OC[C@@]34CCCN3C[C@H](F)C4)nc3c(F)c(-c4ccc(F)c5sc(N)c(C#N)c45)c(Cl)cc23)CCN1C(=O)n1ccnc1C#N` [Compound 176, 1-((2R,3R)-3-((7-(2-amino-3-cyano-7-fluorobenzo[b]thiophen-4-yl)-6-chloro-8-fluoro-2-(((2R,7aS)-2-fluorotetrahydro-1H-pyrrolizin-7a(5H)-yl)methoxy)quinazolin-4-yl)(methyl)amino)-2-methylpyrrolidine-1-carbonyl)-1H-imidazole-2-carbonitrile], the 50% inhibitory concentration (IC50) on KRAS G12S is below 500 nM; in the experiment on MiaPaca2 cells, at most 500 nM; at KRAS G12D, below 500 nM; on KRAS G12V, below 500 nM; on KRAS WT, below 500 nM.

Turning to `CCN(c1nc(OC[C@@]23CCCN2C[C@H](F)C3)nc2c(F)c(-c3ccc(F)c4sc(N)c(C#N)c34)ncc12)[C@@H]1CCN(C(=O)n2cnc(Cl)n2)[C@@H]1C` [Compound 177, 2-amino-4-(4-(((2R,3R)-1-(3-chloro-1H-1,2,4-triazole-1-carbonyl)-2-methylpyrrolidin-3-yl)(ethyl)amino)-8-fluoro-2-(((2R,7aS)-2-fluorotetrahydro-1H-pyrrolizin-7a(5H)-yl)methoxy)pyrido[4,3-d]pyrimidin-7-yl)-7-fluorobenzo[b]thiophene-3-carbonitrile], the IC50 was below 500 nM at KRAS G12S; at most 500 nM with MiaPaca2 cells; below 500 nM at KRAS G12D; below 500 nM at KRAS G12V; below 500 nM on KRAS WT.
